This is an account of results in patent publication US5436254A, “Carbostyril derivatives” (Otsuka Pharmaceutical Company, Ltd., priority 1989, dated 1995).

As a reminder, the IC50 is the concentration that inhibits the measured activity by half.

Sequence of V1 receptor (P30560 whole entry): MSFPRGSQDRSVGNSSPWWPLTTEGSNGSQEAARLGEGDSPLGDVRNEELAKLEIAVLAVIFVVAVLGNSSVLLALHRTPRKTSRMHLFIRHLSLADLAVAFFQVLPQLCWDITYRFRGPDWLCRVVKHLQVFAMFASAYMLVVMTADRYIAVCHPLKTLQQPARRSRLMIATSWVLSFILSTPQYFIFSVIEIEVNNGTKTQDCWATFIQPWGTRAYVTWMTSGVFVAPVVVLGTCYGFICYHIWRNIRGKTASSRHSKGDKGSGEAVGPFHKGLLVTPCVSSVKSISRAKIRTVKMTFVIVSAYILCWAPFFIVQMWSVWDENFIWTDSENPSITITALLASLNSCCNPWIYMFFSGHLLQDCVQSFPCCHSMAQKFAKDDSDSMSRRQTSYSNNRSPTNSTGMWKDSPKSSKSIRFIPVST

This assay addresses V1 receptor (Rattus norvegicus, UniProt P30560). The experiment in a line: biochemical. The class given is binding.
Method: Experiment 1: V1 receptor binding assay
Using rat liver plasma membrane preparations prepared according to Ichihara's method [cf: Akira Ichihara, J. Bio. Chem., 258 9283 (1983)], the plasma membrane (50000 dpm, 2×10^-10 M) of [H]^3 -Arg-vasopressin and a test compound (100 ng, 10^-7 -10^-4 M) are incubated at 37° C. for 10 minutes in 100 mM Tris-HCl buffer pH: 8.0 (250 μl) containing 5 mM MgCl2, 1 mM EDTA and 0.1% BSA. After incubation, the mixture is filtered three times using the glass filter (GF/F) so as to separate the membrane preparation combining with vasopressin and then washed with the buffer (5 ml). This glass filter is taken out and mixed with liquid scintillation cocktail. The amount of [H]^3 -vasopressin combining with the membrane is measured by liquid scintillation counter and the rate of the inhibitory effect of the test compound is estimated according to the following equation. [formula] C^1 : The amount of [H]^3 -vasopressin combining with the membrane in the presence of the test compound (known amount).
C^0 : The amount of [H]^3 -vasopressin combining with the membrane in the absence of the test compound.
B^1 : The amount of [H]^3 -vasopressin combining with the membrane in the presence of the excess amount of vasopressin (10^-6 M).
In turn, `CC1CCN(CCCCCOc2ccc(C(=O)N3CCC(N4C(=O)CCc5ccccc54)CC3)cc2)CC1` [Example 242, 1-{1-(4-[5-(4-Methyl-1-piperidinyl)pentyloxy]benzoyl)-4-piperidinyl}-3,4-dihydrocarbostyril] gave an IC50 of 59 nM. `O=C(c1ccc(OCCCCCCN2CCCCC2)cc1)N1CCC(N2C(=O)CCc3ccccc32)CC1` [Example 243, 1-{1-(4-[6-(1-Piperidinyl)hexyloxy]benzoyl)-4-piperidinyl}-3,4-dihydrocarbostyril]: half-maximal inhibition (IC50) required 39 nM. In turn, `CN(CCO)CCCCCOc1ccc(C(=O)N2CCC(N3C(=O)CCc4ccccc43)CC2)cc1` [Example 244, 1-{1-(4-[5-(N-(2-Hydroxyethyl)-N-methylamino)pentyloxy]benzoyl)-4-piperidinyl}-3,4-dihydrocarbostyril] showed an IC50 of 34 nM. In turn, `C=CCN(C)CCCCCOc1ccc(C(=O)N2CCC(N3C(=O)CCc4ccccc43)CC2)cc1` [Example 245, 1-{1-(4-[5-(N-Allyl-N-methylamino)pentyloxy]benzoyl)-4-piperidinyl}-3,4-dihydrocarbostyril] came in with an IC50 of 54 nM. The compound `C=CC[N+](C)([O-])CCCCCOc1ccc(C(=O)N2CCC(N3C(=O)CCc4ccccc43)CC2)cc1` (stereo not shown) [Example 246, N-{5-[4-(4-(3,4-Dihydrocarbostyril-1-yl)-1-piperidinylcarbonyl)phenoxy]pentyl}, N-methyl, N-allylamine oxide] had an IC50 of 290 nM.

Consider `CN(CCC#N)CCCCCOc1ccc(C(=O)N2CCC(N3C(=O)CCc4ccccc43)CC2)cc1` [Example 247, 1-{1-(4-[5-(N-(2-Cyanoethyl)-N-methylamino)pentyloxy]benzoyl)-4-piperidinyl}-3,4-dihydrocarbostyril], for which the IC50 came out at 170 nM. As for `CN(C)CCN(CCCCCOc1ccc(C(=O)N2CCC(N3C(=O)CCc4ccccc43)CC2)cc1)Cc1ccccc1` [Example 248, 1-{1-(4-[5-(N-(2-Dimethylaminoethyl)-N-benzylamino)pentyloxy]benzoyl)-4-piperidinyl}-3,4-dihydrocarbostyril], 34 nM corresponded to half-maximal inhibition (IC50). This IC50 lies about 5-fold lower than the previous one. The compound `CC(=O)OCCN(CCCCCOc1ccc(C(=O)N2CCC(N3C(=O)CCc4ccccc43)CC2)cc1)CCOC(C)=O` [Example 249, 1-{1-(4-[5-(N,N-Di(2-acetoxyethyl)amino)pentyloxy]benzoyl)-4-piperidinyl}-3,4-dihydrocarbostyril] came in with an IC50 of 45 nM. In the case of `O=C(CCCNC(=O)OCc1ccccc1)NCCCCCOc1ccc(C(=O)N2CCC(N3C(=O)CCc4ccccc43)CC2)cc1` [Example 250, 1-{1-(4-[5-(4-Benzyloxycarbonylaminobutyrylamino)pentyloxy]benzoyl)-4-piperidinyl}-3,4-dihydrocarbostyril] it was 320 nM; in that of `C=CCNCC(=O)NCCCCCOc1ccc(C(=O)N2CCC(N3C(=O)CCc4ccccc43)CC2)cc1` [Example 251], 98 nM. Regarding `O=C(CN1CCCC1)NCCCCCOc1ccc(C(=O)N2CCC(N3C(=O)CCc4ccccc43)CC2)cc1` [Example 252, 1-{1-(4-[5-(2-(1-Pyrrolidinyl)acetylamino)pentyloxy]benzoyl)-4-piperidinyl}-3,4-dihydrocarbostyril], the IC50 was determined as 86 nM. As for `O=C(CN1CCOCC1)NCCCCCOc1ccc(C(=O)N2CCC(N3C(=O)CCc4ccccc43)CC2)cc1` [Example 253, 1-{1-(4-[5-(2-Morpholinoacetylamino)pentyloxy]benzoyl)-4-piperidinyl}-3,4-dihydrocarbostyril], half-maximal inhibition (IC50) was put at 180 nM. This IC50 lies about 2.1-fold higher than the previous one. `CN1CCN(CC(=O)NCCCCCOc2ccc(C(=O)N3CCC(N4C(=O)CCc5ccccc54)CC3)cc2)CC1` [Example 254, 1-{1-(4-[5-(2-(4-Methyl-1-piperazinyl)acetylamino)pentyloxy]benzoyl)-4-piperidinyl}-3,4-dihydrocarbostyril] had a 50% inhibitory concentration (IC50) of 60 nM.

Regarding `O=C(CN1CCN(c2ccccc2)CC1)NCCCCCOc1ccc(C(=O)N2CCC(N3C(=O)CCc4ccccc43)CC2)cc1` [Example 255, 1-{1-(4-[5-(2-(4-Phenyl-1-piperazinyl)acetylamino)pentyloxy]benzoyl)-4-piperidinyl}-3,4-dihydrocarbostyril], inhibition was half-maximal at 380 nM (IC50). Compound `O=C(CNCc1ccccc1)NCCCCCOc1ccc(C(=O)N2CCC(N3C(=O)CCc4ccccc43)CC2)cc1` [Example 256, 1-{1-(4-[5-(2-Benzylaminoacetylamino)pentyloxy]benzoyl)-4-piperidinyl}-3,4-dihydrocarbostyril] displayed a half-inhibitory concentration (IC50) of 190 nM.

In turn, `CN(CCO)CC(=O)NCCCCCOc1ccc(C(=O)N2CCC(N3C(=O)CCc4ccccc43)CC2)cc1` [Example 257, 1-{1-(4-[5-(2-(N-(2-Hydroxyethyl)-N-methylamino)acetylamino)pentyloxy]benzoyl)-4-piperidinyl}-3,4-dihydrocarbostyril] returned an IC50 of 200 nM. Compound `CN(C)c1ccc(S(=O)(=O)NCCCCCOc2ccc(C(=O)N3CCC(N4C(=O)CCc5ccccc54)CC3)cc2)cc1` [Example 258, 1-{1-(4-[5-(4-Dimethylaminophenylsulfonylamino)pentyloxy]benzoyl)-4-piperidinyl]-3,4-dihydrocarbostyril] gave an IC50 of 470 nM. This IC50 lies about 2.4-fold higher than the previous one.

For the compound `CC(=O)Nc1ccc(C(=O)NCCCCCOc2ccc(C(=O)N3CCC(N4C(=O)CCc5ccccc54)CC3)cc2)cc1` [Example 259, 1-{1-(4-[5-(4-Acetylaminobenzoyl)aminopentyloxy]benzoyl)-4-piperidinyl}-3,4'-dihydrocarbostyril], inhibition was half-maximal at 110 nM (IC50). This IC50 is about 4.3-fold lower than that of the compound before. The compound `O=C(NCCCCCOc1ccc(C(=O)N2CCC(N3C(=O)CCc4ccccc43)CC2)cc1)C1CCC(O)C(O)C1` (stereo not shown) [Example 260] gave an IC50 of 150 nM. The IC50 values of the last two compounds are within 1.5-fold of each other.

The compound `CC(=O)OC1CCC(C(=O)NCCCCCOc2ccc(C(=O)N3CCC(N4C(=O)CCc5ccccc54)CC3)cc2)CC1OC(C)=O` (stereo not shown) [Example 261, 1-{1-(4-[5-(3,4-Diacetoxycyclohexylcarbonyl)aminopentyloxy]benzoyl)-4-piperidinyl}-3,4-dihydrocarbostyril] registered an IC50 of 120 nM.

`Nc1ccc(C(=O)NCCCCCOc2ccc(C(=O)N3CCC(N4C(=O)CCc5ccccc54)CC3)cc2)cc1` [Example 262, 1-{1-(4-[5-(4-Aminobenzoyl)aminopentyloxy]benzoyl)-4-piperidinyl}-3,4-dihydrocarbostyril] gave an IC50 of 93 nM. The compound `O=C(c1ccc(OCCCCCNS(=O)(=O)c2ccc([N+](=O)[O-])cc2)cc1)N1CCC(N2C(=O)CCc3ccccc32)CC1` [Example 263, 1-{1-(4-[5-(4-Nitrophenylsulfonyl)aminopentyloxy]benzoyl)-4-piperidinyl}-3,4-dihydrocarbostyril] registered an IC50 of 360 nM. In the case of `Nc1ccc(S(=O)(=O)NCCCCCOc2ccc(C(=O)N3CCC(N4C(=O)CCc5ccccc54)CC3)cc2)cc1` [Example 264, 1-{1-(4-[5-(4-Aminophenylsulfonyl)aminopentyloxy]benzoyl)-4-piperidinyl}-3,4-dihydrocarbostyril] it was 160 nM; in that of `O=C(c1ccc(OCCCCCCN2CCC(N3CCCCC3)CC2)cc1)N1CCC(N2C(=O)CCc3ccccc32)CC1` [Example 265, 1-(1-(4-[6-(4-(1-Piperidinyl)-1-piperidinyl)hexyloxy]benzoyl)-4-piperidinyl}-3,4-dihydrocarbostyril.dioxalate], 19 nM. Compound `CN(CCCCCCOc1ccc(C(=O)N2CCC(N3C(=O)CCc4ccccc43)CC2)cc1)CCc1ccccn1` [Example 266, 1-{1-(4-[6-(N-(2-(2-Pyridyl)ethyl)-N-methylamino)hexyloxy]benzoyl)-4-piperidinyl}-3,4-dihydrocarbostyril] showed an IC50 of 35 nM. Regarding `COC1(CNCCCCCCOc2ccc(C(=O)N3CCC(N4C(=O)CCc5ccccc54)CC3)cc2)OCC(O)C(O)C1O` (stereo not shown) [Example 267, 1-{1-(4-[6-(N-(2-Methoxy-3,4,5-trihydroxytetrahydropyran-2-yl)methylamino)hexyloxy]benzoyl)-4-piperidinyl}-3,4-dihydrocarbostyril], the IC50 stood at 82 nM. Turning to `CCN(CC)CCCCCCCOc1ccc(C(=O)N2CCC(N3C(=O)CCc4ccccc43)CC2)cc1` [Example 268, 1-{1-(4-[7-(Diethylamino)heptyloxy]benzoyl)-4-piperidinyl}-3,4-dihydrocarbostyril], the IC50 was 27 nM. This IC50 lies about 3-fold lower than the previous one.

Compound `O=C(CCCCCOc1ccc(C(=O)N2CCC(N3C(=O)CCc4ccccc43)CC2)cc1)N1CCN(Cc2ccccc2)CC1` [Example 269, 1-{1-(4-[5-(4-Benzyl-1-piperazinylcarbonyl)pentyloxy]benzoyl)-4-piperidinyl}-3,4-dihydrocarbostyril] yielded an IC50 of 160 nM. In the case of `O=C(CCCCCOc1ccc(C(=O)N2CCC(N3C(=O)CCc4ccccc43)CC2)cc1)N1CCNCC1` [Example 270, 1-{1-(4-[5-(1-Piperazinylcarbonyl)pentyloxy]benzoyl)-4-piperidinyl}-3,4-dihydrocarbostyril] it was 44 nM; in that of `CC(=O)N1CCN(C(=O)CCCCCOc2ccc(C(=O)N3CCC(N4C(=O)CCc5ccccc54)CC3)cc2)CC1` [Example 271, 1-{1-(4-[5-(4-Acetyl-1-piperazinylcarbonyl)pentyloxy]benzoyl)-4-piperidinyl}-3,4-dihydrocarbostyril], 42 nM. Compound `CN1CCN(C(=O)CCCCCOc2ccc(C(=O)N3CCC(N4C(=O)CCc5ccccc54)CC3)cc2)CC1` [Example 272, 1-{1-(4-[5-(4-Methyl-1-piperazinylcarbonyl)pentyloxy]benzoyl)-4-piperidinyl}-3,4-dihydrocarbostyril] displayed an IC50 of 38 nM.

`C=CCN1CCN(C(=O)CCCCCOc2ccc(C(=O)N3CCC(N4C(=O)CCc5ccccc54)CC3)cc2)CC1` [Example 273, 1-{1-(4-[5-(4-Allyl-1-piperazinylcarbonyl)pentyloxy]benzoyl)-4-piperidinyl}-3,4-dihydrocarbostyril]: the midpoint of inhibition, the IC50, lay at 57 nM. Compared with the last compound, the IC50 is about 1.5-fold higher. In turn, `O=C(O)C1CCN(C(=O)CCCCCOc2ccc(C(=O)N3CCC(N4C(=O)CCc5ccccc54)CC3)cc2)CC1` [Example 274, 1-{1-(4-[5-(4-Carboxy-1-piperidinylcabonyl)pentyloxy]benzoyl)-4-piperidinyl}-3,4-dihydrocarbostyril] displayed an IC50 of 490 nM. This IC50 lies about 8.6-fold higher than the previous one. `NC(=O)C1CCN(C(=O)CCCCCOc2ccc(C(=O)N3CCC(N4C(=O)CCc5ccccc54)CC3)cc2)CC1` [Example 275, 1-{1-(4-[5-(4-Carbamoyl-1-piperidinylcarbonyl)pentyloxy]benzoyl)-4-piperidinyl}-3,4-dihydrocarbostyril] came in with an IC50 of 46 nM. This IC50 is about 11-fold lower than that of the compound before.
